Measured values reported in patent EP4545550B1, “INSECT NEUROPEPTIDES” (Solasta Bio Limited, priority 2023, dated 2025).

System: Spodoptera frugiperda
Experiment: Lepidoptera artificial diet assay
Type: in vivo
Details: unformulated peptide, final concentration 1x10^-4 M in artificial diet, one L1 larva per cell, n=10, after 168 hours; compared to the insecticide DDT and negative control vehicle
From the text: Frontier Lepidoptera artificial diet was made up by preparing agar at 1% and then mixing it with artificial diet powder. Peptide solution was aliquoted in 10 cells and diet poured straight onto it. The final concentration of the peptide was 1x10^-4 M, and each peptide was aliquoted in 10 cells. Once the diet solidified and cooled down, one L1 larvae was infested in each cell. The trays were sealed with heat and let larva were allowed to develop for 168 hrs. Finally, pupation and mortality were scored for. Lepidoptera artificial diet assays were performed with SB-P-80, and compared to a negative control vehicle and the insecticide dichlorodiphenyltrichloroethane (DDT).

Substance: H-NADEDQQQSVDFTPRL-NH2 [SB-P-80, [Hy]-NADEDQQQSVDFTPRL-[NH2]]
- activity (pupation and mortality scored): much higher activity
